Laboratory results as given in US20240381872A1, “SUBSTITUTED 2,3-DIHYDRO[1,3]THIAZOLO[4,5-B]PYRIDINES, SALTS THEREOF AND THEIR USE AS HERBICIDALLY ACTIVE SUBSTANCES” (BAYER AKTIENGESELLSCHAFT, priority 2021, published 2024).

Tests used:
Assay type in all cases: in vivo
[1] = tested on: Kochia scoparia (KCHSC); test: Herbicidal pre-emergence action, section A (Table A4); details: application rate 1280 g/ha; visual grading after ca. 3 weeks vs untreated controls
In short: (§1)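 Visual scoring at approximately 3 weeks, relative to untreated pots, gave percent effect after compounds in WP or EC form were sprayed onto covering soil of sown seeds (sandy loam) in water with 0.5% additive at 600 l/ha, then kept in greenhouse.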

[2] = tested on: Lolium rigidum (LOLRI); test: Herbicidal pre-emergence action, section A (Table A5); details: application rate 1280 g/ha; visual grading after ca. 3 weeks vs untreated controls
In short: as §1

[3] = tested on: Poa annua (POAAN); test: Herbicidal pre-emergence action, section A (Table A7); details: application rate 320 g/ha; visual grading after ca. 3 weeks vs untreated controls
In short: as §1

[4] = tested on: Setaria viridis (SETVI); test: Herbicidal pre-emergence action, section A (Table A8); details: application rate 320 g/ha
In short: as §1

[5] = tested on: Stellaria media (STEME); test: Herbicidal pre-emergence action, section A (Table A9); details: application rate 1280 g/ha
In short: as §1

[6] = tested on: Amaranthus retroflexus (AMARE); test: Herbicidal pre-emergence action, section A (Table A11); details: application rate 1280 g/ha
In short: as §1

[7] = tested on: Digitaria sanguinalis (DIGSA); test: Herbicidal pre-emergence action, section A (Table A12); details: application rate 1280 g/ha
In short: as §1

[8] = tested on: Kochia scoparia (KCHSC); test: Herbicidal post-emergence action, section B (Table B4); details: application rate 1280 g/ha; visual rating about 3 weeks after treatment vs untreated controls
In short: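 In this greenhouse assay, compounds in WP or EC form were applied post-emergence with 0.5% additive at a water rate of 600 liters per hectare. Treatment took place at the one-leaf stage, and injury was rated visually about 3 weeks later against untreated plants.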

[9] = tested on: Echinochloa crus-galli (ECHCG); test: Herbicidal pre-emergence action, section C (Table C3); details: application rate 320 g/ha; visual grading after ca. 3 weeks vs untreated controls
Description: (§2) Seeds of mono- and dicotyledonous weed plants and crop plants were sown, in plastic or organic planting pots, in sandy loam and covered with soil. The compounds according to the invention, formulated in the form of wettable powders (WP) or as emulsifiable concentrates (EC), were applied to the surface of the covering soil as aqueous suspension or emulsion, with the addition of 0.5% of an additive, at an application rate of 600 l of water/ha (converted). Following treatment, the pots were placed in a greenhouse and kept under optimum growth conditions for the test plants. The visual grading of the damage to the test plants was carried out after ca. 3 weeks in comparison to untreated controls (herbicidal effect in percent (%): 100% effect=plants have died off, 0% effect=as control plants).

[10] = tested on: Setaria viridis (SETVI); test: Herbicidal pre-emergence action, section C (Table C8); details: application rate 320 g/ha; visual grading after ca. 3 weeks
Description: as §2

[11] = tested on: Amaranthus retroflexus (AMARE); test: Herbicidal pre-emergence action, section C (Table C11); details: application rate 80 g/ha; visual grading after ca. 3 weeks
Description: as §2

[12] = tested on: Digitaria sanguinalis (DIGSA); test: Herbicidal pre-emergence action, section C (Table C12); details: application rate 320 g/ha; visual grading after ca. 3 weeks
Description: as §2

[13] = tested on: Zea mays (ZEAMX); test: Pre-emergence effects on crop plants, section D (Table D1); details: application rate 320 g/ha; visual grading after ca. 3 weeks
In short: (§3)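 Formulated compound (wettable powder or emulsifiable concentrate) was applied pre-emergence to the soil surface at 320 g/ha or lower. Greenhouse-grown plants were rated visually for percent damage after ca. 3 weeks.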

[14] = tested on: Triticum aestivum (TRZAS); test: Pre-emergence effects on crop plants, section D (Table D2); details: application rate 320 g/ha; visual grading after ca. 3 weeks
In short: as §3

[15] = tested on: Oryza sativa (ORYZA); test: Pre-emergence effects on crop plants, section D (Table D3); details: application rate 320 g/ha; visual grading after ca. 3 weeks
Description: (§4) Seeds of mono- and dicotyledonous weed plants and crop plants were sown, in plastic or organic planting pots, in sandy loam and covered with soil. The compounds according to the invention, formulated in the form of wettable powders (WP) or as emulsifiable concentrates (EC), were applied to the surface of the covering soil as aqueous suspension or emulsion, with the addition of 0.5% of an additive, at an application rate of 600 l of water/ha (converted).
(§5) Following treatment, the pots were placed in a greenhouse and kept under optimum growth conditions for the test plants. The visual grading of the damage to the test plants was carried out after ca. 3 weeks in comparison to untreated controls (herbicidal effect in percent (%): 100% effect=plants have died off, 0% effect=as control plants).
(§6) Tables D1 to D5 below show the effects of various compounds of the general formula (I) according to Table 1 on various crop plants and an application rate corresponding to 320 g/ha or below obtained by the experimental procedure mentioned above in Biological Examples, Section C.

[16] = tested on: Glycine max (GLXMA); test: Pre-emergence effects on crop plants, section D (Table D4); details: application rate 320 g/ha; visual grading after ca. 3 weeks
In short: as §3

[17] = tested on: Brassica napus (BRSNW); test: Pre-emergence effects on crop plants, section D (Table D5); details: application rate 80 g/ha; visual grading after ca. 3 weeks
Description: as §4, §5, §6

[18] = tested on: Zea mays (ZEAMX); test: Post-emergence effects on crop plants, section F (Table F1); details: crop plant damage, application rate 320 g/ha
In short: (§7)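 Post-emergence greenhouse test: crops grown 2 to 3 weeks in sandy loam, sprayed at 320 g/ha or less in 600 l water/ha with 0.5% additive. Injury rated visually as percent relative to controls roughly three weeks later.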

[19] = tested on: Triticum aestivum (TRZAS); test: Post-emergence effects on crop plants, section F (Table F2); details: crop plant damage, application rate 320 g/ha
In short: as §7

[20] = tested on: Oryza sativa (ORYZA); test: Post-emergence effects on crop plants, section F (Table F3); details: crop plant damage, application rate 320 g/ha
Description: (§8) Seeds of mono- and dicotyledonous weed plants and crop plants were sown, in plastic or organic planting pots, in sandy loam, covered with soil and grown in a greenhouse under controlled growth conditions. 2 to 3 weeks after sowing, the test plants were sprayed in the single-leaf stage. The compounds according to the invention, formulated in form of wettable powders (WP) or as emulsifiable concentrates (EC), were sprayed onto the green plant parts as aqueous suspension or emulsion, with the addition of 0.5% of an additive, at an application rate of 600 l of water/ha (converted). The test plants were placed in the greenhouse for ca. 3 weeks under optimum growth conditions, and then the effect of the preparations was assessed visually in comparison with untreated controls (herbicidal effect in percent (%): 100% effect=plants have died off, 0% effect=as control plants). Tables F1 to F4 below show the effects of selected compounds of the general formula (I) according to Table 1 on various crop plants and an application rate corresponding to 320 g/ha or below obtained by the experimental procedure mentioned above.

[21] = tested on: Glycine max (GLXMA); test: Post-emergence effects on crop plants, section F (Table F4); details: crop plant damage, application rate 80 g/ha
In short: as §7

[22] = tested on: Brassica napus (BRSNW); test: Post-emergence effects on crop plants, section F (Table F5); details: crop plant damage, application rate 80 g/ha
Description: as §8

COc1ccccc1-c1nc2c(cc1Br)SCN2B(N)N [Example I-087]
20%: pre-emergence activity against ORYZA in % (crop plant damage) [15] | pre-emergence activity against GLXMA in % (crop plant damage) [16] | pre-emergence activity against BRSNW in % (crop plant damage) [17]
100%: pre-emergence activity against LOLRI in % [2] | pre-emergence activity against POAAN in % [3] | pre-emergence activity against SETVI in % [4] | pre-emergence activity against DIGSA in % [7] | pre-emergence activity against SETVI in % [10]
90%: pre-emergence activity against KCHSC in % [1] | pre-emergence activity against STEME in % [5] | pre-emergence activity against AMARE in % [6] | post-emergence activity against KCHSC in % [8] | pre-emergence activity against ECHCG in % [9] | pre-emergence activity against AMARE in % [11] | pre-emergence activity against DIGSA in % [12]
10%: pre-emergence activity against ZEAMX in % (crop plant damage) [13] | pre-emergence activity against TRZAS in % (crop plant damage) [14]
0%: post-emergence activity against ZEAMX in % [18] | post-emergence activity against TRZAS in % [19] | post-emergence activity against ORYZA in % [20] | post-emergence activity against GLXMA in % [21] | post-emergence activity against BRSNW in % [22]
